# Data from patent US7998958B2, “Substituted N-arylsulfonylheterocyclic amines as gamma-secretase inhibitors” (Schering Corporation, priority 2004, dated 2011).
# pIC50: −log10 of the molar value.
# Test system: gamma-secretase
# Test: Gamma-secretase activity in membranes of 293 cells expressing C99 (SPC99-Ion), Aβ 40 / Aβ 42 by ECL immunoassay
# Assay type: biochemical
# Details: gamma-secretase membrane assay; single values listed after 'within the range of about 1 nM to about 25 nM, i.e.'
# Procedure: Gamma-secretase activity was determined as described by Zhang et al. (Biochemistry, 40 (16), 5049-5055, 2001), which is herein incorporated by reference. Activity is expressed either as a percent inhibition or as the concentration of compound producing 50% inhibition of enzyme activity.
# Reagents. Antibodies W02, G2-10, and G2-11 were obtained from Dr. Konrad Beyreuther (University of Heidelberg, Heidelberg, Germany). W02 recognizes residues 5-8 of Aβ peptide, while G2-10 and G2-11 recognize the specific C-terminal structure of Aβ 40 and Aβ42, respectively. Biotin-4G8 was purchased from Senetec (St. Louis, Mo.). All tissue culture reagents used in this work were from Life Technologies, Inc., unless otherwise specified. Pepstatin A was purchased from Roche Molecular Biochemicals; DFK167 was from Enzyme Systems Products (Livermore, Calif.).
# cDNA Constructs, Tissue Culture, and Cell Line Construction. The construct SPC99-Ion, which contains the first 18 residues and the C-terminal 99 amino acids of APP carrying the London mutation, has been described (Zhang, L., Song, L., and Parker, E. (1999) J. Biol. Chem. 274, 8966-8972). Upon insertion into the membrane, the 17 amino acid signal peptide is processed, leaving an additional leucine at the N-terminus of Aβ. SPC99-Ion was cloned into the pcDNA4/TO vector (Invitrogen) and transfected into 293 cells stably transfected with pcDNA6/TR, which is provided in the T-REx system (Invitrogen). The transfected cells were selected in Dulbecco's modified Eagle's media (DMEM) supplemented with 10% fetal bovine serum, 100 units/mL penicillin, 100 µg/mL streptomycin, 250 µg/mL zeocin, and 5 µg/mL blasticidin (Invitrogen). Colonies were screened for Aβ production by inducing C99 expression with […] tetracycline for 16-20 h and analyzing conditioned media with a sandwich immunoassay (see below). One of the clones, designated as pTRE.15, was used in these studies.
# Membrane Preparation. C99 expression in cells was induced with […] tetracycline for 20 h. The cells were pretreated with […] 12-myristate 13-acetate (PMA) and […] brefeldin A (BFA) for 5-6 h at 37° C. before harvesting. The cells were washed 3 times with cold phosphate-buffered saline (PBS) and harvested in buffer A containing 20 mM Hepes (pH 7.5), 250 mM sucrose, 50 mM KCl, 2 mM EDTA, 2 mM EGTA, and Complete protease inhibitor tablets (Roche Molecular Biochemicals). The cell pellets were flash-frozen in liquid nitrogen and stored at −70 C before use.
# To make membranes, the cells were resuspended in buffer A and lysed in a nitrogen bomb at 600 psi. The cell lysate was centrifuged at 1500 g for 10 min to remove nuclei and large cell debris. The supernatant was centrifuged at 100000 g for 1 h. The membrane pellet was resuspended in buffer A plus 0.5 M NaCl, and the membranes were collected by centrifugation at 200000 g for 1 h. The salt-washed membrane pellet was washed again in buffer A and centrifuged at 100000 g for 1 h. The final membrane pellet was resuspended in a small volume of buffer A using a Teflon-glass homogenizer. The protein concentration was determined, and membrane aliquots were flash-frozen in liquid nitrogen and stored at −70° C.
# γ-Secretase Reaction and AβAnalysis. To measure γ-secretase activity, membranes were incubated at 37° C. for 1 h in 50 μL of buffer containing 20 mM Hepes (pH 7.0) and 2 mM EDTA. At the end of the incubation, Aβ 40 and Aβ 42 were measured using an electrochemiluminescence (ECL)-based immunoassay. Aβ 40 was identified with antibody pairs TAG-G2-10 and biotin-W02, while Aβ 42 was identified with TAG-G2-11 and biotin-4G8. The ECL signal was measured using an ECL-M8 instrument (IGEN International, Inc.) according to the manufacturer's instructions. The data presented were the means of the duplicate or triplicate measurements in each experiment. The characteristics of γ-secretase activity described were confirmed using more than five independent membrane preparations.
row,pIC50,Compound
1,8.17,O=C(OC[C@H]1COC[C@@H](c2cc(F)cc(F)c2)N1S(=O)(=O)c1ccc(Cl)cc1)N1CCC(N2CCCCC2)CC1 [Example 2]
2,8.85,"CC(C)(CO)N1CCN(C(=O)OC2(C3COCC(c4cc(F)cc(F)c4)N3S(=O)(=O)c3ccc(Cl)cc3)CC2)CC1 (stereo not shown) [Example 16, 4-(2-Hydroxy-1,1-dimethyl-ethyl)-piperazine-1-carboxylic acid 1-[4-(4-chloro-benzenesulfonyl)-5-(3,5-difluoro-phenyl)-morpholin-3-yl]-cyclopropyl ester]"
3,7.95,O=C(OC[C@H]1COC[C@@H](C2CC2)N1S(=O)(=O)c1ccc(Cl)cc1)N1CCC(N2CCCCC2)CC1 [Example 30]
4,8.02,"CC(C)(CO)N1CCN(C(=O)OC2(C3COCC(C4CC4)N3S(=O)(=O)c3ccc(Cl)cc3)CC2)CC1 (stereo not shown) [Example 35, 4-(2-Hydroxy-1,1-dimethyl-ethyl)-piperazine-1-carboxylic acid 1-[4-(4-chloro-benzenesulfonyl)-5-cyclopropyl-morpholin-3-yl]-cyclopropyl ester]"
5,7.88,CCCC1(O)CCN(C(=O)OC2([C@H]3COC[C@@H](C4CC4)N3S(=O)(=O)c3ccc(Cl)cc3)CC2)C1 (stereo partly shown) [Example 36]
6,7.61,O=C(O)CC1CCN(C(=O)OC2([C@H]3COC[C@@H](C4CC4)N3S(=O)(=O)c3ccc(Cl)cc3)CC2)CC1 [Example 47]
7,8.28,C[C@@H]1OC[C@H](C2(OC(=O)N3CC[C@@H](O)C3)CC2)N(S(=O)(=O)c2ccc(Cl)cc2)[C@@H]1C1CC1 [Example 69]
8,8.41,CC(C)[C@@H]1COC[C@H](C2(OC(=O)N3CCN(C(C)(C)CO)CC3)CC2)N1S(=O)(=O)c1ccc(Cl)cc1 [Example 78]
9,8.17,C[C@H]1N(S(=O)(=O)c2ccc(Cl)cc2)[C@@H](C2(OC(=O)N3CCC(C(N)=O)CC3)CC2)COC1(C)C [Example 88]
10,8.68,"CC(C)(CO)N1CCN(C(=O)OC2(C3COCC(CC4CC4)N3S(=O)(=O)c3ccc(Cl)cc3)CC2)CC1 (stereo not shown) [Example 94, 4-(2-Hydroxy-1,1-dimethyl-ethyl)-piperazine-1-carboxylic acid 1-[4-(4-chloro-benzenesulfonyl)-5-cyclopropylmethyl-morpholin-3-yl]-cyclopropyl ester]"
11,8.44,O=C(OC1([C@H]2COC[C@@H](CC3CC3)N2S(=O)(=O)c2ccc(Cl)cc2)CC1)N1CC2CC1CN2CCO (stereo partly shown) [Example 98]
12,8.24,CN1CCN(C(=O)OC2([C@H]3COC[C@@H](CC4CC4)N3S(=O)(=O)c3ccc(Cl)cc3)CC2)CC1=O [Example 110]
13,8.38,CN1CCCN(C(=O)OC2([C@H]3COC[C@@H](CC4CC4)N3S(=O)(=O)c3ccc(Cl)cc3)CC2)CC1 [Example 122]

row,Compound,pIC50
1,"O=C(CC1([C@H]2COC[C@@H](C3CC3)N2S(=O)(=O)c2ccc(Cl)cc2)CC1)N1C2CCC1CC(N1CCCCC1)C2 (single isomer, unassigned) [Example 142]",7.91
2,CCC[C@@H]1COC[C@H](C2(OC(=O)N3CC4CCC(C3)N4CCO)CC2)N1S(=O)(=O)c1ccc(Cl)cc1 [Example 15],8.44
3,O=C(OC1([C@H]2COC[C@@H](C3CC3)N2S(=O)(=O)c2ccc(Cl)cc2)CC1)N1CC2CCC(C1)N2CCO [Example 43],8.10
4,CN1CC2CCC(C1)N2C(=O)OC1([C@H]2COC[C@@H](C3CC3)N2S(=O)(=O)c2ccc(Cl)cc2)CC1 [Example 51],8.21
5,CN(C)CC(=O)N1C2CCC1CN(C(=O)OC1([C@H]3COC[C@@H](C4CC4)N3S(=O)(=O)c3ccc(Cl)cc3)CC1)C2 [Example 59],8.05
6,C[C@H]1OC[C@H](C2(OC(=O)N3CC4CCC(C3)N4CCO)CC2)N(S(=O)(=O)c2ccc(Cl)cc2)[C@@H]1C1CC1 [Example 75],9.05
7,O=C(OC1([C@H]2COC[C@@H](CC3CC3)N2S(=O)(=O)c2ccc(Cl)cc2)CC1)N1CC2CCC(C1)N2CCO [Example 99],9.05
8,O=C(OC1([C@H]2COC[C@@H](CC3CC3)N2S(=O)(=O)c2cc(F)cc(F)c2)CC1)N1CC2CCC(C1)N2 [Example 135],8.38
9,"O=C(C(O)C1([C@H]2COC[C@@H](C3CC3)N2S(=O)(=O)c2ccc(Cl)cc2)CC1)N1CC2CCC(C1)N2 (stereo partly drawn) [Example 146, alpha-[1-[4-[(4-chlorophenyl)sulfonyl]-5(r)-cyclopropyl-3(s)-morpholinyl]cyclopropyl]-beta-oxo-3,8-diazabicyclo[3.2.1]octane-3-ethanol]",8.00
